Molecular target: Protein kinase C (PKC) (Rattus norvegicus) (UniProt P05696+P68403+P09216+P63319+P09215+Q64617+Q9WTQ0+P09217)
Experiment: Activation of protein kinase C
Type: protein assay

Dose, 1 µM:
CCCCCCCC(=O)OCC(CO)OC(=O)CCc1cccc(I)c1 (stereo not drawn)
CC(=O)OCC(CO)OC(=O)CCCCCCCCCCCCCCc1cccc(I)c1 (stereo not drawn)
CC(=O)OC(CO)COC(=O)CCCCCCCCCCCCCCc1cccc(I)c1 (stereo not drawn)
